The values below come from paper PMC2950867 (Journal of pharmacological and toxicological methods, 2010).

The conditions of data set [1]: ref Horton et al., cited from earlier work; for pKa of the α-amino group: 25 °C, free amino acid.
Data set [2] has as its system Caco-2 cells. It counts as cell-based, human. The following applies: for IC50: read-out: IC50 MTT 24-hr, Caco-2 confluent monolayers, 24-hr single dosing.
Data set [3] has as its system Caco-2 cells. It counts as cell-based, human. The following applies: read-out: IC50 TMER 24-hr; Caco-2 monolayers on PET inserts, 24-hr single dosing.

Read-outs that look alike come from different tables or passages of the source.

Take `NC(=O)C[C@H](N)C(=O)O` [asparagine]: the “pKa of the α-amino group” value in data set [1] is on record as 8.7.

Consider `[Cl][Cd][Cl]` [cadmium chloride], for which the results for the IC50 in data set [2] and in data set [3] were 109 µM and 49 µM, respectively. For the molecule `NCC(=O)O` [glycine], in data set [1], the “pKa of the α-amino group” value is reported as 9.8 and the “hydropathy (tendency to prefer a hydrophobic environment)” value is 0.16 kcal/mol. With `O=S(=O)([O-])[O-].[Cu+2]` [cupric sulfate], the results for the IC50 in data set [2] and in data set [3] were 1570 µM and 1800 µM, respectively.

Turning to `N[C@@H](CS)C(=O)O` [cysteine], in data set [1], the “pKa of the α-amino group” value was 10.7. For the molecule `[Cl][Mn][Cl]` [manganese chloride], the results for the IC50 in data set [2] and in data set [3] were 9600 µM and 3080 µM, respectively. With `[Cl][Ni][Cl]` [nickel chloride], in data set [2] (24-hr single exposure at the 24-hr TMER IC50 concentration), the “MTT (cell viability)” value was 16% of control. Besides, the IC50 was determined as 968 µM in data set [2] and 8400 µM in data set [3]. Regarding `N[C@@H](Cc1ccc(O)cc1)C(=O)O` [tyrosine], the “hydropathy (tendency to prefer a hydrophobic environment)” value in data set [1] is 0.019 kcal/mol.

For mercury chloride, the IC50 in data set [3] came out at 90 µM.
